In general, AUC(0-inf) refers to the area under the concentration-time curve extrapolated to infinity. Read a low AUC(0-inf) as low exposure. The MIC is the lowest concentration found to suppress growth. For orientation: Tmax means the time from dosing to the highest level.

The subject of series [1] is Cell membrane. Briefly: Disruption of cell membrane in methicillin resistant Staphylococcus aureus ATCC 33592 assessed as cell lysis at 0.5 ug/ml incubated for 6 hrs by Scanning electron microscopic analysis. Type of series: cell membranes. Conditions: dose 0.5 µg/ml.
Series [2] in a line: Free AUC in BALB/c mouse at 10 mg/kg,po administration measured upto 24 hrs by LC-MS/MS analysis. The class given is ADME, organism-based. Conditions: in vivo.
The subject of series [3] is Staphylococcus aureus. Briefly: Inhibition of biofilm formation in methicillin resistant Staphylococcus aureus ATCC 33592 at 0.1 to 10 ug/ml incubated for 48 hrs by crystal violet staining based assay. The class given is functional, organism-based. Conditions: dose 0.1-10 µg/ml.
For series [4], the system named is Cell membrane. Briefly: Disruption of cell membrane integrity in Staphylococcus aureus ATCC 25923 assessed as increase in red fluorescence at 0.5 ug/ml incubated for 1 hr by […] and propidium iodide double staining based confocal microscopic analysis. Conditions: dose 0.5 µg/ml. Type of series: cell membranes.
A short description of series [5]: AUC (0 to infinity) in BALB/c mouse at 10 mg/kg,po administration measured upto 24 hrs by LC-MS/MS analysis. Conditions: BALB/c, in vivo. The class given is ADME, organism-based.
Series [6] is described as follows: Metabolic stability in human liver microsomes assessed as substrate remaining at 10 uM incubated for 60 mins in presence of NADPH by LC-MS/MS analysis. The class given is ADME, Microsome. Conditions: read-out: Stability.
The test system of series [7] is Staphylococcus aureus. Briefly: Antibacterial activity against methicillin resistant Staphylococcus aureus clinical isolate 20-1 assessed as inhibition of bacterial growth incubated for 7 days by alamar blue assay. The class given is functional. Conditions: clinical isolate 20-1, 168 h, time 7 day. In general terms: Resazurin is reduced to fluorescent resorufin, in cell work by metabolically active cells.

Series [8] deals with Staphylococcus aureus. Briefly: Antibacterial activity against methicillin resistant Staphylococcus aureus ATCC 33592 infected in cyclophosphamide-induced immunosuppressed Kunming mouse assessed as decrease in TNF-alpha level at po administration measured after 24 hrs by ELISA. Type of series: functional, organism-based. (ELISA stands for enzyme-linked immunosorbent assay.)

Series [9] concerns Staphylococcus aureus. Briefly: Antibacterial activity against methicillin resistant Staphylococcus aureus ATCC 33592 infected in cyclophosphamide-induced immunosuppressed Kunming mouse assessed as decrease in IL-6 level at po administration measured after 24 hrs by ELISA. The class given is functional, organism-based.
Series [10] relates to Staphylococcus aureus. Briefly: Antibacterial activity against Linezolid resistant Staphylococcus aureus assessed as inhibition of bacterial growth incubated for 7 days by alamar blue assay. The class given is functional. Conditions: 168 h, time 7 day.
For series [11], the system named is Staphylococcus aureus. In words: Antibacterial activity against methicillin resistant Staphylococcus aureus ATCC 33592 infected in cyclophosphamide-induced immunosuppressed Kunming mouse assessed as increase in body weight at 10 to 50 mg/kg,po administration measured for 7 days. The class given is functional, organism-based. Conditions: dose 10-50 mg/kg, time 7.0 day.

The test system of series [12] is Staphylococcus aureus. In words: Antibacterial activity against Staphylococcus aureus ATCC25923 assessed as inhibition of bacterial growth incubated for 18 hrs by microdilution broth assay. Type of series: functional.
The nature of series [13]: Tmax in BALB/c mouse at 10 mg/kg,po administration measured upto 24 hrs by LC-MS/MS analysis. Type of series: ADME, organism-based. Conditions: in vivo.
For series [14], the system named is Staphylococcus aureus. In words: Antibacterial activity against methicillin resistant Staphylococcus aureus ATCC 33592 infected in cyclophosphamide-induced immunosuppressed Kunming mouse assessed as reduction in inflammatory cell infiltration in lung at 10 to 50 mg/kg,po administration measured after 24 hrs by hematoxylin and eosin staining based microscopy. The class given is functional, organism-based. Conditions: dose 10-50 mg/kg.

Series [15] deals with Staphylococcus aureus. In words: Antibacterial activity against methicillin resistant Staphylococcus aureus ATCC 33592 infected in cyclophosphamide-induced immunosuppressed Kunming mouse by measuring survival rate of mouse at 50 mg/kg,po administration measured for 7 days. The class given is functional. Conditions: ATCC 33592, 168 h, time 7 day.
Series [16] has as its system Staphylococcus aureus. In words: Antibacterial activity against methicillin resistant Staphylococcus aureus ATCC 33592 infected in cyclophosphamide-induced immunosuppressed Kunming mouse assessed as reduction in bacterial load in lung at 10 to 50 mg/kg,po administration measured after 24 hrs by hematoxylin and eosin staining based microscopy. The class given is functional, organism-based. Conditions: dose 10-50 mg/kg.

For series [17], the system named is Staphylococcus aureus. In words: Bacteriostatic activity against methicillin resistant Staphylococcus aureus ATCC 33592 at 4 times MIC incubated for 2 to 24 hrs by time-kill assay. The class given is functional, organism-based. Conditions: time 2-24 hrs.
The test system of series [18] is Staphylococcus aureus. Briefly: Antibacterial activity against methicillin resistant Staphylococcus aureus ATCC 33592 infected in cyclophosphamide-induced immunosuppressed Kunming mouse assessed as reduction of bacterial load in liver at 10 to 50 mg/kg,po administration measured after 24 hrs by hematoxylin and eosin staining based microscopy. The class given is functional, organism-based. Conditions: dose 10-50 mg/kg.

A short description of series [19]: Plasma protein binding in BALB/c mouse at 1 mg/kg,iv administration measured upto 24 hrs by LC-MS/MS analysis. The class given is ADME, organism-based. Conditions: read-out: PPB (converted).
Series [20] deals with Staphylococcus epidermidis. Briefly: Antibacterial activity against Staphylococcus epidermidis ATCC12228 assessed as inhibition of bacterial growth incubated for 18 hrs by microdilution broth assay. Type of series: functional. (Broth dilution looks for growth in wells or tubes with falling amounts of substance.)
Series [21] is described as follows: AUC (0 to infinity) in BALB/c mouse at 1 mg/kg,iv administration measured upto 24 hrs by LC-MS/MS analysis. The class given is ADME, organism-based. Conditions: BALB/c, in vivo.
Series [22] deals with Staphylococcus aureus. In words: Antibacterial activity against methicillin resistant Staphylococcus aureus ATCC 33592 infected in cyclophosphamide-induced immunosuppressed Kunming mouse assessed as reduction in pigment deposition in spleen at 10 mg/kg,po administration measured after 24 hrs by hematoxylin and eosin staining based microscopy. The class given is functional, organism-based.

≈ marks a conversion by molar mass, not a printed value. Calls of active or inactive are those of the source. The calls are words filed in the database; no cut-off is given here.

As for `CC(=O)NC[C@@H]1OC(=O)N2Cc3cc(-c4ccc(C#N)cc4)c(F)cc3O[C@@H]12`, the result in the series with Cell membrane [1], with Cell membrane [4], in the series on Staphylococcus aureus [11], in the series on Staphylococcus aureus [14], with Staphylococcus aureus [16] and with Staphylococcus aureus [17] was Active. The result with Staphylococcus aureus [18] and in the series with Staphylococcus aureus [22] was Active. Further, the fAUC in series [2] is 14940 ng·h/mL. Also, the inhibition entry in the series on Staphylococcus aureus [3] is “Active”. The AUC(0-inf) in series [5] was found to be 83500 ng·h/mL; in series [21], 5130 ng·h/mL. Further, in [6], the remaining at 1 h, 10 µM stood at 116%. Further, the minimum inhibitory concentration (MIC) with Staphylococcus aureus [7] amounted to 0.5 µg/mL (≈ 1.31 µM); in the series on Staphylococcus aureus [10], 2 µg/mL (≈ 5.24 µM); in the series with Staphylococcus aureus [12] it was 0.5 µg/mL (≈ 1.31 µM); in series [20], 0.032 µg/mL (≈ 0.0839 µM). Also, the Activity entry in the series with Staphylococcus aureus [8] and in the series on Staphylococcus aureus [9] was “Dose-Dependent Effect” throughout. Also, the Tmax in series [13] worked out at 2 h. This compound also had a survival at 50 mg/kg in the series on Staphylococcus aureus [15] of 100%. The fraction unbound at 24 h in series [19] was 0.239.

The record behind these values is ChEMBL document CHEMBL5608235, “Tricyclic Benzo[1,3]oxazinyloxazolidinones as Potent Antibacterial Agents against Drug-Resistant Pathogens” (J Med Chem, 2024).
